Our source for the IC50, Activity and inhibition values is ChEMBL document CHEMBL3588786, “Synthesis and Biological evaluation of novel 4β-[(5-substituted)-1,2,3,4-tetrazolyl] podophyllotoxins as anticancer compounds” (Bioorg Med Chem Lett, 2015).

A word on the IC50: it is the midpoint of a concentration-inhibition curve. As a reminder, the inhibition is the relative decrease from the control value, in per cent.

Calls of active or inactive are those of the source. No cut-off for these calls is given here.

One assay relates to SK-N-SH. As to the kind of experiment: Cytotoxicity against human SK-N-SH cells assessed as cell viability by SRB assay. The format is functional, cell-based.
The test system of assay [1] is A549. Briefly: Cytotoxicity against human A549 cells assessed as cell viability by SRB assay. The format is functional, cell-based. For orientation: Sulforhodamine B stains cellular protein and so reports cell mass.
The test system of assay [2] is A549. As to the kind of experiment: Induction of cell cycle arrest in human A549 cells assessed as accumulation at G1 phase at 5 uM after 24 hrs by flow cytometry. It is filed as functional. Background: In flow cytometry, cells or beads pass a laser one at a time.
Assay [3] relates to A549. As to the kind of experiment: Induction of cell cycle arrest in human A549 cells assessed as accumulation at S phase at 5 uM after 24 hrs by flow cytometry. The format is functional.
The subject of assay [4] is A549. As to the kind of experiment: Antimitotic activity against human A549 cells at 5 uM after 12 hrs by flow cytometry. It is filed as functional, cell-based.
A further assay concerns MCF7. Briefly: Cytotoxicity against human MCF7 cells assessed as cell viability by SRB assay. The format is functional, cell-based.
Assay [5] has as its system A549. Briefly: Induction of cell cycle arrest in human A549 cells assessed as accumulation at G0 phase at 5 uM after 24 hrs by flow cytometry. The format is functional.
The test system of assay [6] is A549. As to the kind of experiment: Induction of cell cycle arrest in human A549 cells assessed as accumulation at G2/M phase at 5 uM after 24 hrs by flow cytometry. It is filed as functional.
A further assay has as its target Tubulin (Bos taurus) (UniProt Q6B856+Q862F3). As to the kind of experiment: Inhibition of bovine brain tubulin polymerization assessed as increase in fluorescence intensity at 5 uM relative to control.
The test system of another assay is HeLa. Briefly: Cytotoxicity against human HeLa cells assessed as cell viability by SRB assay. The format is functional, cell-based.

On to `COc1cc([C@@H]2c3cc4c(cc3[C@@H](n3nnnc3S(=O)(=O)c3ccc(C)cc3)[C@H]3COC(=O)[C@H]23)OCO4)cc(OC)c1OC`, for which the IC50 in the assay with SK-N-SH was determined as 5.31 µM; with A549 [1], 2.89 µM; in the assay with MCF7 it was 6.99 µM; in the assay on HeLa it was 3.15 µM. For the same compound, the Activity is listed as 20.09% in the assay on A549 [2], 5.22% with A549 [3], 19.96% in the assay on A549 [5] and 54.73% in the assay with A549 [6]. Besides, the result in the assay with A549 [4] was Active. Further, the inhibition at Tubulin (Bos taurus) is 0.73%.

In the case of `CC(=O)O[C@H]1C(=O)[C@@]2(C)[C@H]([C@H](OC(=O)c3ccccc3)[C@]3(O)C[C@H](OC(=O)[C@H](O)[C@@H](NC(=O)c4ccccc4)c4ccccc4)C(C)=C1C3(C)C)[C@]1(OC(C)=O)CO[C@@H]1C[C@@H]2O` [PACLITAXEL], the Activity in the assay on A549 [2] is 13.7%; with A549 [3], 6.01%; in the assay with A549 [5], 9.81%; in the assay with A549 [6], 70.48%.

In the case of `COc1cccc2c1C(=O)c1c(O)c3c(c(O)c1C2=O)C[C@@](O)(C(=O)CO)C[C@@H]3O[C@H]1C[C@H](N)[C@H](O)[C@H](C)O1` [DOXORUBICIN], the IC50 in the assay with SK-N-SH was 7.36 µM; in the assay on A549 [1], 6.13 µM; in the assay with MCF7, 12.3 µM; in the assay with HeLa it was 10.8 µM.

`COc1cc([C@@H]2c3cc4c(cc3[C@H](O)[C@H]3COC(=O)[C@H]23)OCO4)cc(OC)c1OC` [PODOFILOX]: the IC50 in the assay on SK-N-SH came to 7.92 µM; with A549 [1], 2.55 µM; in the assay on MCF7 it was 3.34 µM; with HeLa, 1.92 µM. Moreover, the Activity is 19.71% with A549 [2], 10.03% with A549 [3], 9.48% in the assay on A549 [5] and 60.77% with A549 [6]. In addition, the inhibition on Tubulin (Bos taurus) is 93.9%.

As for `COC(=O)c1nnnn1[C@@H]1c2cc3c(cc2[C@@H](c2cc(OC)c(OC)c(OC)c2)[C@H]2C(=O)OC[C@@H]21)OCO3`, the half-inhibitory concentration (IC50) in the assay on SK-N-SH turned out to be 6.5 µM; in the assay on A549 [1], 3.11 µM; in the assay on MCF7, 6.97 µM; with HeLa it was 5.25 µM. Moreover, the Activity in the assay with A549 [2] was 30.01%; in the assay on A549 [3], 4.61%; in the assay on A549 [5] it was 19.92%; in the assay on A549 [6], 45.43%. In addition, the result in the assay with A549 [4] was Active. Also, the inhibition at Tubulin (Bos taurus) worked out at 12.4%.

As for `CCOC(=O)c1nnnn1[C@@H]1c2cc3c(cc2[C@@H](c2cc(OC)c(O)c(OC)c2)[C@H]2C(=O)OC[C@@H]21)OCO3`, the half-inhibitory concentration (IC50) with SK-N-SH is 25.9 µM; in the assay on A549 [1], 6.49 µM; in the assay with MCF7, 12.4 µM; in the assay with HeLa it was 29.1 µM. Further, the Activity in the assay with A549 [2] came to 11.83%; in the assay on A549 [3] it was 6%; with A549 [5], 7.3%; in the assay with A549 [6] it was 74.86%. Moreover, in the assay on A549 [4], the result was Active. The inhibition on Tubulin (Bos taurus) was 2.68%.

On to `COC(=O)Nc1nc2ccc(C(=O)c3cccs3)cc2n1C`, for which, at Tubulin (Bos taurus), the inhibition was 65.3%.

On to `COc1cc([C@@H]2c3cc4c(cc3[C@@H](n3nnnc3C(=O)OCc3ccccc3)[C@H]3COC(=O)[C@H]23)OCO4)cc(OC)c1O`, for which the IC50 in the assay with SK-N-SH amounted to 6.16 µM; in the assay on A549 [1] it was 2.98 µM; with MCF7, 9.44 µM; in the assay on HeLa, 4.77 µM. The Activity is 19.95% in the assay on A549 [2], 8.25% in the assay on A549 [3], 8.61% in the assay with A549 [5] and 63.19% in the assay with A549 [6]. Moreover, the inhibition on Tubulin (Bos taurus) was determined as 29.8%.

As for `COc1cc([C@@H]2c3cc4c(cc3[C@@H](n3nnnc3C(=O)OCc3ccccc3)[C@H]3COC(=O)[C@H]23)OCO4)cc(OC)c1OC`, the IC50 in the assay on SK-N-SH turned out to be 4.58 µM; with A549 [1], 2.48 µM; in the assay with MCF7, 4.85 µM; with HeLa, 4.01 µM. The Activity came to 17.77% in the assay on A549 [2], 6.61% with A549 [3], 10.28% in the assay on A549 [5] and 65.34% in the assay on A549 [6]. The inhibition on Tubulin (Bos taurus) turned out to be 57.5%.

For the compound `COc1cc([C@@H]2c3cc4c(cc3[C@@H](n3nnnc3S(=O)(=O)c3ccc(C)cc3)[C@H]3COC(=O)[C@H]23)OCO4)cc(OC)c1O`, the IC50 in the assay with SK-N-SH turned out to be 3.44 µM; in the assay on A549 [1], 3.29 µM; with MCF7, 5.29 µM; with HeLa it was 3.05 µM. In addition, the Activity in the assay on A549 [2] is 19.28%; with A549 [3], 7.28%; with A549 [5] it was 11%; with A549 [6] it was 62.48%. For the same compound, the inhibition on Tubulin (Bos taurus) came out at 22.5%.

With `CCOC(=O)c1nnnn1[C@@H]1c2cc3c(cc2[C@@H](c2cc(OC)c(OC)c(OC)c2)[C@H]2C(=O)OC[C@@H]21)OCO3`, the IC50 is 3.61 µM with SK-N-SH, 2.4 µM in the assay on A549 [1], 7.47 µM in the assay on MCF7 and 4.76 µM with HeLa. Further, the Activity with A549 [2] is given as 16.44%; in the assay with A549 [3] it was 5.52%; with A549 [5] it was 12.44%; with A549 [6] it was 65.6%. Further, the inhibition at Tubulin (Bos taurus) was found to be 99.2%.

On to `COc1cc([C@@H]2c3cc4c(cc3[C@@H](n3nnnc3C(=O)c3ccccc3)[C@H]3COC(=O)[C@H]23)OCO4)cc(OC)c1O`, for which the IC50 with SK-N-SH came to 3.49 µM; in the assay with A549 [1], 2.71 µM; with MCF7, 7.02 µM; with HeLa, 3.61 µM. Moreover, the Activity was 19.89% in the assay with A549 [2], 6.49% with A549 [3], 9.66% in the assay with A549 [5] and 63.93% with A549 [6]. Moreover, the outcome in the assay with A549 [4] was Active. In addition, the inhibition on Tubulin (Bos taurus) is 11.5%.

`COc1cc([C@@H]2c3cc4c(cc3[C@@H](n3nnnc3C(=O)c3ccccc3)[C@H]3COC(=O)[C@H]23)OCO4)cc(OC)c1OC`: the IC50 in the assay with SK-N-SH turned out to be 4.68 µM; with A549 [1] it was 4.29 µM; in the assay with MCF7, 6.89 µM; in the assay with HeLa it was 4.76 µM. In addition, the Activity with A549 [2] was 13.88%; with A549 [3], 5.73%; in the assay with A549 [5], 11.01%; with A549 [6] it was 69.37%. Further, the inhibition on Tubulin (Bos taurus) came out at 72.5%.

Turning to `COC(=O)c1nnnn1[C@@H]1c2cc3c(cc2[C@@H](c2cc(OC)c(O)c(OC)c2)[C@H]2C(=O)OC[C@@H]21)OCO3`, the IC50 was 5.64 µM with SK-N-SH, 2.44 µM in the assay on A549 [1], 5.27 µM in the assay on MCF7 and 3.95 µM with HeLa. Moreover, the Activity with A549 [2] is on record as 15.18%; with A549 [3], 6.38%; in the assay with A549 [5] it was 9.96%; in the assay on A549 [6] it was 68.48%. Also, on Tubulin (Bos taurus), the inhibition was determined as 28.3%.
